Assay results as given in EP0702683B1, “06-SUBSTITUTED GUANINE DERIVATIVES, A PROCESS FOR THEIR PREPARATION AND THEIR USE IN TREATING TUMOUR CELLS” (Cancer Research Technology Limited, priority 1993, dated 1994).
Like-named read-outs stand apart in the source and are kept apart here.

What was measured:
ATase [1] = target: T1, ATase (Homo sapiens, UniProt P16455); experiment: In vitro ATase inactivation assay with purified recombinant human ATase; type: biochemical; set-up: made in house; settings: for ability to inactivate recombinant human ATase: up to the highest concentration used, in words; for effectiveness in the in vitro ATase inactivation assay compared with BeG: Figure 1, in words
T1 sequence (P16455 1-207): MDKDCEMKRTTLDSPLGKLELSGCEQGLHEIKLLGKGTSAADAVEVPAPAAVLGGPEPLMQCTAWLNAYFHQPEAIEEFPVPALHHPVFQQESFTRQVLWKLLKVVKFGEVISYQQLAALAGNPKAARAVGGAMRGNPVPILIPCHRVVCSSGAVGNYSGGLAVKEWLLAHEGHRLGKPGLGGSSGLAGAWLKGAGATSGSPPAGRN
Method: The cDNA cloning and overexpression of the human ATase has been reported previously^23. Purification of the recombinant proteins was achieved either by affinity chromatography through a DNA-cellulose column as described by Wilkinson et al.,^25, 26, or by DEAE-cellulose ion-exchange chromatography. For the latter, the ATase protein was partially purified by ammonium sulphate precipitation (30 - 60%) and dialysed against 10 mM Tris-HCl pH 7.5, 1 mM DTT, 2 mM EDTA, 10% glycerol, before loading on a DEAF-cellulose column. The ATase was then eluted with a 0-0.1 M NaCl gradient.
Compounds to be tested were dissolved in DMSO to a final concentration of 10 mM and diluted just before use in buffer I containing 1 mg/ml bovine serum albumin (IBSA). Recombinant ATase was diluted in IBSA and titrated in order that the reaction be conducted under ATase, and not substrate, limiting conditions. In each assay, fixed amounts of ATase (60-75 fmol) were incubated with varying amounts of 0^6-benzylguanine, or test compound in a total volume of 200 µl of IBSA containing 10 µg of calf thymus DNA at 37°C for 1 hour. The [^3H]-methylated-DNA substrate (100 µl containing 6.7 µg of DNA and 100 fmol of 0^6-methylguanine) was added and incubation continued at 37° for 1 hour, until the reaction was completed. Following acid hydrolysis of the DNA as previously described^21 the [^3H]-methylated protein was recovered and quantitated by liquid scintillation counting. Samples were typically assayed in duplicate and experiments repeated several times. I50 is the concentration of inactivator required to produce a 50% reduction in ATase activity.

[2] = Stability of inactivators at 37°C (spectrophotometric half life); type: physicochemical
Method: Inactivators (10mM in DMSO) were diluted to 0.1mM in prewarmed degassed buffer I (1mM EDTA, 50mM Tris pH 8.3) or PBS (pH 7-7.2). […] Samples were immediately transferred to a CARY13 spectrophotometer (cuvette block held at 37°C) and scanned at an appropriate wavelength (according to the spectral properties of the compound) at 3-10 minute intervals for up to 80 hours. The results were expressed as percentage absorbance change versus time and T1/2 values (half life) extrapolated from this.

Raji cells = experiment: Sensitization of Raji cells to BCNU (XTT assay); type: cell-based, human; settings: BCNU, 2 hour pretreatment; for Raji sensitization (D90.^C/D90.^I) 0.5µM: inactivator 0.5µM; for Raji sensitization (D90.^C/D90.^I) 1.0µM: inactivator 1.0µM; for Raji sensitization (D90.^C/D90.^I) O.1µM: inactivator O.1µM
Method: Following a 2 hour incubation at 37°C, medium containing either increasing doses of BCNU, temozolomide or equivalent vehicle was added and the cells allowed to grow for 6 days. At this time XTT solution was added and the cells incubated for a further 4 hours at 37°C. The resulting red/orange formazan reaction product was quantified by measuring absorption at 450nm on a microtitre platereader.

ATase [3] = target: T1, ATase; experiment: Inactivation of ATase activity in Raji cells; type: cell-based; set-up: endogenous in cells; host or cells: Raji; settings: Raji cells, 2 hours at 37°C; read-out: Raji I50
Method: Mammalian cells were cultured under standard conditions. For example, Raji (a human lymphoblastoid cell line from a Burkitt's lymphoma) cells were grown in suspension culture in RPMI medium supplemented with 10% horse serum. A375M cells are human melanoma cells from which the xenografts described below were established following subcutaneous injection into nude mice: WiDr cells are a human colon carcinoma cell line: Hamster+120 cells are a mitozolomide-selected subline of a Chinese hamster lung fibroblast V79 cell line called RJKO: Yoshida cells are a rat carcinosarcoma cell line and YRbus is a busulphan resistant subline thereof: XP cells are an SV40-transformed fibroblast cell line originally from the skin of a Xeroderma pigmentosum patient, pHMGhAT2b cells are a clone of these cells that have been transfected with a mammalian cell expression vector containing the human ATase cDNA and pHMGla cells are a clone that have been transfected with the expression vector only (i.e. one not containing the human ATase cDNA). Cell pellets were resuspended in cold (4°C) buffer I containing 2 µg/ml leupeptin and sonicated for 10 seconds at 12 µ peak to peak distance. After cooling in ice, the cells were sonicated for a further 10 seconds at 18 µ. Immediately after sonication, 0.01 volumes of 8.7 mg/ml phenylmethanesulphonylfluoride in ethanol was added and the sonicates centrifuged at 15 000 g for 10 minutes at 4°C to pellet cell debris. The supernatant was kept for determination of ATase activity (see below).
Cells were diluted to 10^6/ml in culture medium containing either the appropriate concentration of inactivator or an equivalent volume of vehicle (DMSO). Following incubation at 37°C for 2 hours the cells were harvested by centrifugation, washed twice with PBS and the resulting cell pellets (between 1-2 x 10^7 per pellet) stored at -20°C.

A375M cells = experiment: Sensitization of A375M cells to BCNU (MTT assay); type: cell-based, human; settings: for A375M sensitization (D50.^C/D50.^I) 0.5uM: inactivator 0.5uM 2 hours before; for A375M sensitization (D50.^C/D50.^I) 5.0uM: inactivator 5.0uM 2 hours before; for A375M sensitization (D50.^C/D50.^I) 1.0uM: inactivator 1.0uM 2 hours before
Method: Sensitization of A375M cells to the cytotoxic effects of BCNU was analysed by MTT assay ^24 differing from the XTT assay described above as follows. […] After 6 days MTT solution (4mg/ml) was added and cells incubated for 3 hours at 37°C. Medium was aspirated and the resulting purple formazan crystals were solubilised in DMSO (120μl) and cell viability was quantified by measuring absorption at 540nm using a microtitre plate reader.

[4] = 0.1mM in PBS (pH 7-7.2), read-out: T1/2(h) in PBS (converted)
[5] = 0.1mM in buffer I (1mM EDTA, 50mM Tris pH 8.3), read-out: T1/2(h) in Buffer I (converted)

## CC(Oc1nc(N)nc2[nH]cnc12)c1ccccc1 (racemic) [B.4214, DL-O^6-(α -methylbenzyl)guanine, reference compound]
ATase [1]
  IC50: > 60000 nM
  ability to inactivate recombinant human ATase: did not inactivate ATase up to the highest concentration used

## CC(Oc1nc(N)nc2[nH]cnc12)c1cccs1 (racemic) [B.4217, DL-O^6-(α -methylthenyl)guanine]
ATase [1]
  IC50: > 500000 nM
  ability to inactivate recombinant human ATase: did not inactivate ATase up to the highest concentration used

## CC(Oc1nc(N)nc2[nH]cnc12)c1ccsc1 (racemic) [B.4219, DL-O^6-[1-(3-thienyl)ethyl]guanine]
[2]; [4]
  half-life at 100 µM: 0.12 h
Raji cells
  Raji sensitization (D90.^C/D90.^I) 0.5µM: 1.0
  Raji sensitization (D90.^C/D90.^I) 1.0µM: 1.0
  Raji sensitization (D90.^C/D90.^I) O.1µM: 1.0
ATase [1]
  IC50: 85000 nM
ATase [3]
  IC50: > 1000 nM

## Nc1nc(OCc2ccsc2)c2nc[nH]c2n1 [B.4206, O^6-(3-thienylmethyl)guanine]
[2]; [4]
  half-life at 100 µM: > 16 h
[2]; [5]
  half-life at 100 µM: > 80 h
Raji cells
  Raji sensitization (D90.^C/D90.^I) 1.0µM: 6.0
  Raji sensitization (D90.^C/D90.^I) O.1µM: 1.6
A375M cells
  A375M sensitization (D50.^C/D50.^I) 0.5uM: 3.3
  A375M sensitization (D50.^C/D50.^I) 5.0uM: 4.6
ATase [1]
  IC50: 30 nM
  effectiveness in the in vitro ATase inactivation assay compared with BeG: somewhat more effective than BeG
ATase [3]
  IC50: 60 nM

## Nc1nc(OCc2ccoc2)c2nc[nH]c2n1 [B.4209, O^6-(3-furylmethyl)guanine]
[2]; [4]
  half-life at 100 µM: > 16 h
Raji cells
  Raji sensitization (D90.^C/D90.^I) 0.5µM: 1.4
  Raji sensitization (D90.^C/D90.^I) 1.0µM: 2.8
  Raji sensitization (D90.^C/D90.^I) O.1µM: 1.5
A375M cells
  A375M sensitization (D50.^C/D50.^I) 1.0uM: 2.5
ATase [1]
  IC50: 150 nM
ATase [3]
  IC50: 150 nM

## Nc1nc(OCc2ccccn2)c2nc[nH]c2n1 [B.4210, O^6-(2-picolyl)guanine]
[2]; [4]
  half-life at 100 µM: > 16 h
A375M cells
  A375M sensitization (D50.^C/D50.^I) 1.0uM: 1.5

## Nc1nc(OCc2cccnc2)c2[nH]cnc2n1 [B.4211, O^6-(3-picolyl)guanine]
[2]; [4]
  half-life at 100 µM: > 16 h
ATase [1]
  IC50: 430 nM

## Nc1nc(OCc2ccc3c(c2)OCO3)c2nc[nH]c2n1 [B.4212, O^6-piperonylguanine]
[2]; [4]
  half-life at 100 µM: 0.72 h
[2]; [5]
  half-life at 100 µM: 1.3 h
Raji cells
  Raji sensitization (D90.^C/D90.^I) 1.0µM: 10.7
  Raji sensitization (D90.^C/D90.^I) O.1µM: 2.7
A375M cells
  A375M sensitization (D50.^C/D50.^I) 0.5uM: 2.3
  A375M sensitization (D50.^C/D50.^I) 5.0uM: 2.5
ATase [1]
  IC50: 20 nM
  effectiveness in the in vitro ATase inactivation assay compared with BeG: considerably better
ATase [3]
  IC50: 50 nM

## Cc1ccccc1COc1nc(N)nc2[nH]cnc12 [B.4218, O^6-(2-methylbenzyl)guanine, reference compound]
ATase [1]
  IC50: 58000 nM

## Nc1nc(OCc2cccc3ccccc23)c2nc[nH]c2n1 [B.4265, O^6-(1-naphthylmethyl)guanine]
[2]; [5]
  half-life at 100 µM: 60 h
ATase [1]
  IC50: 95000 nM

## Nc1nc(OCc2cc3ccccc3o2)c2nc[nH]c2n1 [B.4266, O^6-(2-benzofuranylmethyl)guanine]
[2]; [4]
  half-life at 100 µM: > 16 h
A375M cells
  A375M sensitization (D50.^C/D50.^I) 0.5uM: 6.3
  A375M sensitization (D50.^C/D50.^I) 5.0uM: 6.3
ATase [1]
  IC50: 35 nM

## Nc1nc(OCc2ccc3c(c2)OCO3)c2ncn([C@@H]3O[C@H](CO)[C@@H](O)[C@H]3O)c2n1 [B.4268, O^6-piperonylguanosine]
[2]; [4]
  half-life at 100 µM: 8 h
ATase [1]
  IC50: 750 nM

## Nc1nc(OCc2ccc(Br)s2)c2nc[nH]c2n1 [B.4269, O^6-(5-bromothenyl)guanine]
ATase [1]
  IC50: 4.5 nM
ATase [3]
  IC50: 6 nM

## Nc1nc(OCc2cnc3c(c2)OCO3)c2nc[nH]c2n1 [B.4271, O^6-(5-azapiperonyl)guanine]
[2]; [4]
  half-life at 100 µM: > 16 h
ATase [1]
  IC50: 230 nM

## N#Cc1ccc(COc2nc(N)nc3[nH]cnc23)o1 [B.4273, O^6-(5-cyanofurfuryl)guanine]
ATase [1]
  IC50: 6 nM

## Nc1nc(OCc2cnco2)c2nc[nH]c2n1 [B.4274, O^6-(5-oxazolylmethyl)guanine]
ATase [1]
  IC50: 340 nM

## Nc1nc(OCc2cncs2)c2nc[nH]c2n1 [B.4275, O^6-(5-thiazolylmethyl)guanine]
ATase [1]
  IC50: 33 nM

## Nc1nc(OCc2cc3ccccc3s2)c2ncn([C@@H]3O[C@H](CO)[C@@H](O)[C@H]3O)c2n1 [B.4276, O^6-(2-benzo[b]thienylmethyl)guanosine]
ATase [1]
  IC50: 350 nM

## Nc1nc(OCc2ccncc2)c2nc[nH]c2n1 [B.4277, O^6-(4-picolyl)guanine]
ATase [1]
  IC50: 130 nM

## Cn1cc([N+](=O)[O-])cc1COc1nc(N)nc2[nH]cnc12 [B.4278, O^6(1-methyl-4-nitropyrrol-2-ylmethyl) guanine]
ATase [1]
  IC50: 550 nM

## Nc1nc(OCc2cccs2)c2ncn([C@@H]3O[C@H](CO)[C@@H](O)[C@H]3O)c2n1 [B.4279, O^6-thenylguanosine]
ATase [1]
  IC50: 900 nM

## C=CCOc1nc(N)nc2[nH]cnc12 [O^6-allylguanine, reference compound]
[2]; [5]
  half-life at 100 µM: > 64 h
A375M cells
  A375M sensitization (D50.^C/D50.^I) 0.5uM: 1.3
  A375M sensitization (D50.^C/D50.^I) 5.0uM: 1.9
ATase [1]
  IC50: 22000 nM

## O^6-(2-methoxybenzyl)guanine [B.4231, reference compound]
ATase [1]; recombinant human ATase incubated with inactivator 1 hour at 37°C before substrate, read-out: I50
  IC50: 60000 nM
